US20130150340A1, “6-(4-Hydroxy-phenyl)-1H-pyrazolo[3,4-b]pyridine-4-carboxylic acid amide derivatives as kinase inhibitors” (SANOFI, priority 2011, published 2013)

Biological target: T1, human full-length recombinant PKC βII (Homo sapiens, UniProt P05771)
T1 construct: Active human full-length recombinant PKC βII; purchased Invitrogen GmbH, Darmstadt, Germany
Assay: Determination of PKC βII inhibition (Caliper mobility-shift kinase assay)
Type: biochemical
Conditions: example compounds at a final concentration of 1.14 μM (±0.15 μM); 60 min incubation at 32° C.
Protocol: Determination of PKC 3H Inhibition
PKC βII inhibition was determined according to the following protocol:
Active human full-length recombinant PKC βII and the peptide substrate, Fluorescein-RFARKGSLRQKNV, were purchased from Invitrogen GmbH, Darmstadt, Germany. Adenosine-5′-triphosphate (ATP), bovine serum albumine (BSA), dimethylsulphoxide (DMSO), 4-(2-hydroxyethyl)piperazine-1-ethanesulfonic acid (Hepes), Triton X-100, 1,2-Dioleoyl-sn-glycerol (DAG), L-α-Phosphatidyl-L-serine (PS), calcium chloride (CaCl2), and Pluronic F-68 were purchased from Sigma-Aldrich, Munich, Germany. Magnesium chloride, 1 M sodium hydroxide solution, 1M hydrochloric acid solution and EDTA were obtained from Merck Biosciences, Darmstadt, Germany.
Test compounds were diluted to three times the test concentration in buffer 1 (30 mM Hepes-NaOH, pH 7.4, 0.01% Pluronic F-68 and 3% (v/v) DMSO). The PKC βII enzyme was diluted to a concentration of 30 ng/ml in buffer 2 (30 mM Hepes-NaOH, pH 7.4, 15 mM MgCl2, 150 μM CaCl2, 150 μg/ml PS, 60 μg/ml DAG, and 0.045% (w/v) Triton X-100). The peptide substrate and ATP were diluted to concentrations of 3 μM and 120 μM, respectively, in buffer 2. Two μl of the compound solution were mixed with 2 μl of the diluted enzyme in a 384-well small volume microtiter plate (Greiner, Bio-One, Frickenhausen, Germany), and the kinase reaction was initiated by addition of 2 μl of the solution containing peptide substrate and ATP. After 60 min incubation at 32° C., the reaction was stopped by addition of 20 μl of a solution containing 130 mM Hepes-NaOH, pH 7.4, 0.0195% (v/v) Brij-35, 6.5 mM EDTA, 0.13% chip coating reagent 3 (Caliper Lifescience Inc, Hopkinton, Mass.) and 6.5% (v/v) DMSO. Phosphorylation of the substrate peptide was then detected on a Caliper 3000 instrument essentially as described by Pommereau et al (J. Biomol. Screening 2004, 9(5), […]), Separation conditions were as follows: Pressure −0.8 psi, upstream voltage −3000 V, downstream voltage −800 V. Positive controls (buffer 1 instead of compound) and negative controls (buffer 1 instead of compound and buffer 2 instead of kinase solution) were run in parallel on each plate. Fractional turnover (R) was determined as the height of the peak of the phosphorylated peptide product divided by the sum of the unphosphorylated substrate and phosphorylated product peak heights. Percent-inhibition values for the test compounds were determined using the formula
% Inhibition=100*(1−(Rcompound−Rnegative control)/(Rpositive control−Rnegative control).

T1 sequence (P05771 1-673 isoform P05771-2): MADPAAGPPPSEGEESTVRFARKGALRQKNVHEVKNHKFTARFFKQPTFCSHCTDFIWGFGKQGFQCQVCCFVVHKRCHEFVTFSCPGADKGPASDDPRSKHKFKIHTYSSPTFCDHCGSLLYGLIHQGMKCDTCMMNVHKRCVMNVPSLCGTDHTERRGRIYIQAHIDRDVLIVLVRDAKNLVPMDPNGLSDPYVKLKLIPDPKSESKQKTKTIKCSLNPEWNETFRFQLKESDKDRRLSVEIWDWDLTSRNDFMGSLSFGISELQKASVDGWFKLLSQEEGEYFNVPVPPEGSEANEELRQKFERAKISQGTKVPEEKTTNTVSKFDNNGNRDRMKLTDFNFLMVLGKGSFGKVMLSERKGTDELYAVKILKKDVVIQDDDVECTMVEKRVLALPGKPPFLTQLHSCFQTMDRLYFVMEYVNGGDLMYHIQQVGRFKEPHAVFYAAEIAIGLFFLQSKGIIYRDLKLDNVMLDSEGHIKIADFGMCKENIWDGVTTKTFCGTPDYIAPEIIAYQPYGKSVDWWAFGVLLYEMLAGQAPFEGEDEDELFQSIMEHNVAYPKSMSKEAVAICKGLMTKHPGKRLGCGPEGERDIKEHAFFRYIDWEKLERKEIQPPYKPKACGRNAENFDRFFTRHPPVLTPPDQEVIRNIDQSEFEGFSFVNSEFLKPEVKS

How did the inhibition at 1.14 µM turn out when `O=C(c1cc(-c2ccc(O)cc2)nc2[nH]ncc12)N1CCC2(CC1)CNCCO2` [Example 26, [6-(4-Hydroxy-phenyl)-1H-pyrazolo[3,4-b]pyridin-4-yl]-(1-oxa-4,9-diaza-spiro[5.5]undec-9-yl)-methanone] was run?
The inhibition at 1.14 µM was 36%.

Which inhibition at 1.14 µM does the source give for `O=C(c1cc(-c2ccc(O)cc2)nc2[nH]ncc12)N1CCOC2(CCCNC2)C1` (stereo not drawn) [Example 27, [6-(4-Hydroxy-phenyl)-1H-pyrazolo[3,4-b]pyridin-4-yl]-(1-oxa-4,8-diaza-spiro[5.5]undec-4-yl)-methanone] here?
Its inhibition at 1.14 µM is 42%.

How did the inhibition at 1.14 µM turn out when `O=C(c1cc(-c2ccc(O)cc2)nc2[nH]ncc12)N1CCCC2(CNCCO2)C1` (stereo not drawn) [Example 28, [6-(4-Hydroxy-phenyl)-1H-pyrazolo[3,4-b]pyridin-4-yl]-(1-oxa-4,8-diaza-spiro[5.5]undec-8-yl)-methanone] was run?
Its inhibition at 1.14 µM is 15%.

`N[C@H]1C[C@H](NC(=O)c2cc(-c3ccc(O)cc3)nc3[nH]ncc23)C1` [Example 30, 6-(4-Hydroxy-phenyl)-1H-pyrazolo[3,4-b]pyridine-4-carboxylic acid (trans-3-amino-cyclobutyl)-amide] was tested. Which inhibition at 1.14 µM did it give?
Its inhibition at 1.14 µM is 68%.

`O=C(c1cc(-c2ccc(O)cc2)nc2[nH]ncc12)N1CCC2(CNCCO2)C1` (stereo not drawn) [Example 31, [6-(4-Hydroxy-phenyl)-1H-pyrazolo[3,4-b]pyridin-4-yl]-(6-oxa-2,9-diaza-spiro[4.5]dec-2-yl)-methanone] was tested. Which inhibition at 1.14 µM did it give?
Its inhibition at 1.14 µM is 53%.

For `O=C(NC1CCNC2(CCC2)C1)c1cc(-c2ccc(O)cc2)nc2[nH]ncc12` (stereo not drawn) [Example 32, 6-(4-Hydroxy-phenyl)-1H-pyrazolo[3,4-b]pyridine-4-carboxylic acid (5-aza-spiro[3.5]non-8-yl)-amide], which inhibition at 1.14 µM is on record?
Its inhibition at 1.14 µM is 69%.

With `NC1CCCC(NC(=O)c2cc(-c3ccc(O)cc3)nc3[nH]ncc23)C1` (stereo not drawn) [Example 33, 6-(4-Hydroxy-phenyl)-1H-pyrazolo[3,4-b]pyridine-4-carboxylic acid (3-amino-cyclohexyl)-amide] as the compound, how does the inhibition at 1.14 µM read?
The inhibition at 1.14 µM was 87%.

With `O=C(c1cc(-c2ccc(O)cc2)nc2[nH]ncc12)N1CCC2CNCC21` (stereo not drawn) [Example 34, (Hexahydro-pyrrolo[3,4-b]pyrrol-1-yl)-[6-(4-hydroxy-phenyl)-1H-pyrazolo[3,4-b]pyridin-4-yl]-methanone] as the compound, how does the inhibition at 1.14 µM read?
The inhibition at 1.14 µM was 45%.

`O=C(NC1CNC1)c1cc(-c2ccc(O)cc2)nc2[nH]ncc12` [Example 35, 6-(4-Hydroxy-phenyl)-1H-pyrazolo[3,4-b]pyridine-4-carboxylic acid azetidin-3-ylamide] was tested. Which inhibition at 1.14 µM did it give?
Its inhibition at 1.14 µM is 82%.

For `NC1CN(C(=O)c2cc(-c3ccc(O)cc3)nc3[nH]ncc23)C1` [Example 36, (3-Amino-azetidin-1-yl)-[6-(4-hydroxy-phenyl)-1H-pyrazolo[3,4-b]pyridin-4-yl]-methanone], which inhibition at 1.14 µM is on record?
Its inhibition at 1.14 µM is 54%.

With `CC1CN(C(=O)c2cc(-c3ccc(O)cc3)nc3[nH]ncc23)CCN1` (stereo not drawn) [Example 37, [6-(4-Hydroxy-phenyl)-1H-pyrazolo[3,4-b]pyridin-4-yl]-(3-methyl-piperazin-1-yl)-methanone] as the compound, how does the inhibition at 1.14 µM read?
Its inhibition at 1.14 µM is 91%.

For `NC1CCN(C(=O)c2cc(-c3ccc(O)cc3)nc3[nH]ncc23)CC1` [Example 38, (4-Amino-piperidin-1-yl)-[6-(4-hydroxy-phenyl)-1H-pyrazolo[3,4-b]pyridin-4-yl]-methanone], which inhibition at 1.14 µM is on record?
The inhibition at 1.14 µM was 60%.

For `CNC1CCN(C(=O)c2cc(-c3ccc(O)cc3)nc3[nH]ncc23)C1` (stereo not drawn) [Example 39, [6-(4-Hydroxy-phenyl)-1H-pyrazolo[3,4-b]pyridin-4-yl]-(3-methylamino-pyrrolidin-1-yl)-methanone], which inhibition at 1.14 µM is on record?
Its inhibition at 1.14 µM is 62%.

`O=C(N[C@@H]1CN2CCC1CC2)c1cc(-c2ccc(O)cc2)nc2[nH]ncc12` [Example 40, 6-(4-Hydroxy-phenyl)-1H-pyrazolo[3,4-b]pyridine-4-carboxylic acid-(S)-(1-Aza-bicyclo[2.2.2]oct-3-yl)amide] was tested. Which inhibition at 1.14 µM did it give?
Its inhibition at 1.14 µM is 71%.

`CN1CCCC(NC(=O)c2cc(-c3ccc(O)cc3)nc3[nH]ncc23)C1` (stereo not drawn) [Example 41, 6-(4-Hydroxy-phenyl)-1H-pyrazolo[3,4-b]pyridine-4-carboxylic acid (1-methyl-piperidin-3-yl)-amide] was tested. Which inhibition at 1.14 µM did it give?
The inhibition at 1.14 µM was 73%.

`CN(C(=O)c1cc(-c2ccc(O)cc2)nc2[nH]ncc12)C1CCNCC1` [Example 42, 6-(4-Hydroxy-phenyl)-1H-pyrazolo[3,4-b]pyridine-4-carboxylic acid methyl-piperidin-4-yl-amide] was tested. Which inhibition at 1.14 µM did it give?
The inhibition at 1.14 µM was 39%.

`O=C(c1cc(-c2ccc(O)cc2)nc2[nH]ncc12)N1CCC2(CCNC2)CC1` [Example 43, (2,8-Diaza-spiro[4.5]dec-8-yl)-[6-(4-hydroxy-phenyl)-1H-pyrazolo[3,4-b]pyridin-4-yl]-methanone] was tested. Which inhibition at 1.14 µM did it give?
Its inhibition at 1.14 µM is 52%.

With `O=C(c1cc(-c2ccc(O)cc2)nc2[nH]ncc12)N1CCC2(CCNCC2)CC1` [Example 44, (3,9-Diaza-spiro[5.5]undec-3-yl)-[6-(4-hydroxy-phenyl)-1H-pyrazolo[3,4-b]pyridin-4-yl]-methanone] as the compound, how does the inhibition at 1.14 µM read?
Its inhibition at 1.14 µM is 44%.

How did the inhibition at 1.14 µM turn out when `NC1CCN(C(=O)c2cc(-c3ccc(O)cc3)nc3[nH]ncc23)C1` (stereo not drawn) [Example 45, (3-Amino-pyrrolidin-1-yl)-[6-(4-hydroxy-phenyl)-1H-pyrazolo[3,4-b]pyridin-4-yl]-methanone] was run?
The inhibition at 1.14 µM was 50%.

With `O=C(c1cc(-c2ccc(O)cc2)nc2[nH]ncc12)N1CC2CNCC2C1` (stereo not drawn) [Example 46, (Hexahydro-pyrrolo[3,4-c]pyrrol-2-yl)-[6-(4-hydroxy-phenyl)-1H-pyrazolo[3,4-b]pyridin-4-yl]-methanone] as the compound, how does the inhibition at 1.14 µM read?
The inhibition at 1.14 µM was 39%.

With `O=C(c1cc(-c2ccc(O)cc2)nc2[nH]ncc12)N1CC2CC1CN2` (stereo not drawn) [Example 47, 2,5-Diaza-bicyclo[2.2.1]hept-2-yl-[6-(4-hydroxy-phenyl)-1H-pyrazolo[3,4-b]pyridin-4-yl]-methanone] as the compound, how does the inhibition at 1.14 µM read?
The inhibition at 1.14 µM was 81%.

Which inhibition at 1.14 µM does the source give for `O=C(c1cc(-c2ccc(O)cc2)nc2[nH]ncc12)N1CCC2(CC1)CNc1ccccc12` [Example 49] here?
Its inhibition at 1.14 µM is 28%.

For `O=C(NC1CC2(CCNCC2)c2ccccc21)c1cc(-c2ccc(O)cc2)nc2[nH]ncc12` (stereo not drawn) [Example 50, 6-(4-hydroxy-phenyl)-1H-pyrazolo[3,4-b]pyridine-4-carboxylic acid (2,3-dihydrospiro[1H-indene-1,4′-piperidin]-3-yl)-amide], which inhibition at 1.14 µM is on record?
The inhibition at 1.14 µM was 97%.

With `CN1CCN(C(=O)c2cc(-c3ccc(O)cc3)nc3[nH]ncc23)CC1` [Example 52, [6-(4-Hydroxy-phenyl)-1H-pyrazolo[3,4-b]pyridin-4-yl]-(4-methyl-piperazin-1-yl)-methanone] as the compound, how does the inhibition at 1.14 µM read?
The inhibition at 1.14 µM was 38%.

`CC(=O)N1CCN(C(=O)c2cc(-c3ccc(O)cc3)nc3[nH]ncc23)CC1` [Example 53, 1-{4-[6-(4-Hydroxy-phenyl)-1H-pyrazolo[3,4-b]pyridine-4-carbonyl]-piperazin-1-yl}-ethanone] was tested. Which inhibition at 1.14 µM did it give?
The inhibition at 1.14 µM was 46%.

For `O=C(c1cc(-c2ccc(O)cc2)nc2[nH]ncc12)N1CCC[C@H]1CN1CCCC1` [Example 54, [6-(4-Hydroxy-phenyl)-1H-pyrazolo[3,4-b]pyridin-4-yl]-((S)-2-pyrrolidin-1-ylmethyl-pyrrolidin-1-yl)-methanone], which inhibition at 1.14 µM is on record?
Its inhibition at 1.14 µM is 20%.

With `CN(C)[C@H]1CCN(C(=O)c2cc(-c3ccc(O)cc3)nc3[nH]ncc23)C1` [Example 55, ((S)-3-Dimethylamino-pyrrolidin-1-yl)-[6-(4-hydroxy-phenyl)-1H-pyrazolo[3,4-b]pyridin-4-yl]-methanone] as the compound, how does the inhibition at 1.14 µM read?
The inhibition at 1.14 µM was 47%.

Which inhibition at 1.14 µM does the source give for `CC(C)N1CCN(C(=O)c2cc(-c3ccc(O)cc3)nc3[nH]ncc23)CC1` [Example 56, [6-(4-Hydroxy-phenyl)-1H-pyrazolo[3,4-b]pyridin-4-yl]-(4-isopropyl-piperazin-1-yl)-methanone] here?
Its inhibition at 1.14 µM is 23%.

How did the inhibition at 1.14 µM turn out when `O=C(c1cc(-c2ccc(O)cc2)nc2[nH]ncc12)N1CCN(C(=O)C2CC2)CC1` [Example 57, (4-Cyclopropanecarbonyl-piperazin-1-yl)-[6-(4-hydroxy-phenyl)-1H-pyrazolo[3,4-b]pyridin-4-yl]-methanone] was run?
The inhibition at 1.14 µM was 28%.

For `O=C(c1cc(-c2ccc(O)cc2)nc2[nH]ncc12)N1CCN(C2CCCCCC2)CC1` [Example 58, (4-Cycloheptyl-piperazin-1-yl)-[6-(4-hydroxy-phenyl)-1H-pyrazolo[3,4-b]pyridin-4-yl]-methanone], which inhibition at 1.14 µM is on record?
The inhibition at 1.14 µM was 40%.
